The values below come from ChEMBL document CHEMBL1201862, “PubChem BioAssay data set” (2004).

Usually EC50 stands for the concentration giving half of the maximal effect. What is called AC50 is the midpoint of the concentration-response curve, whichever way the signal moves. The IC50 is the concentration that inhibits the measured activity by half.

Calls of active or inactive are those of the source.

The nature of data set [1]: cytotoxicity toward NIH3T3 fibroblasts, dose response, counter-screen, cell-based, ATP luminescence, mouse fibroblasts (AID 2010).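 Note: cells exposed to compound for about 90 hours before reading.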 In kind it is functional. Background: The purpose of a counterscreen is to sort out artefacts and off-target activity.
The nature of data set [2]: inhibitors of intracellular T. cruzi replication, confirmation, NIH3T3 host cells, beta-gal luminescence (AID 2044).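 Note: intracellular parasites grown in NIH/3T3 mouse fibroblasts as host cells; luminescent beta-galactosidase reporter signal from transgenic T. cruzi replicating inside host cells; inhibitors lower the luminescence signal.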 In kind it is functional, cell-based.
A short description of data set [3]: microbe, parasite or virus in culture. In kind it is functional. To be noted: Mycobacterium tuberculosis.
In another data set the target is Cytochrome P450 3A4 (Homo sapiens, UniProt P08684).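 Note: CYP3A4 tested as one member of a cytochrome P450 panel screen.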
The subject of a further data set is INS1. In words: beta cell apoptosis inhibitors, cytokine rescue, dose response, luminescence, retest (AID 449756).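 Note: cell death triggered by IL-1 beta plus TNF-alpha plus IFN-gamma mixture; protective hits raise ATP signal compared with cytokine alone wells.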 In kind it is functional, cell-based. As to conditions: Rattus norvegicus.
The target of another data set is Cytochrome P450 2C9 (Homo sapiens, UniProt P11712).
A short description of data set [4]: Shn3 3'UTR reporter inhibitors, dose response, cell-based, Clone20 osteoblasts, firefly luciferase, cherry-picked (AID 624132).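 Note: firefly luciferase luminescence from reporter carrying the Shn3 3'UTR in osteoblasts.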 In kind it is functional.
A short description of data set [5]: control 3'UTR Renilla luciferase suppression, dose response, counter-screen for Shn3 inhibitor project, cell-based, Clone20-Shn3RL, cherry-picked (AID 624133). In kind it is functional.
Data set [6] can be described thus: HepG2 cell cytotoxicity, dose response, cytotoxicity control for Shn3 inhibitor project, CellTiter-Glo, cherry-picked (AID 624134). In kind it is functional, cell-based. On the technique in general: ATP-based viability assays read luminescence as a measure of living cells.
The target of data set [7] is T1, Sentrin-specific protease 8 (Homo sapiens, UniProt Q96LD8).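 Note: luminescence read-out of SENP8 inhibition, dose-response confirmation following an ultra-high-throughput screen.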
T1 sequence (Q96LD8 whole entry): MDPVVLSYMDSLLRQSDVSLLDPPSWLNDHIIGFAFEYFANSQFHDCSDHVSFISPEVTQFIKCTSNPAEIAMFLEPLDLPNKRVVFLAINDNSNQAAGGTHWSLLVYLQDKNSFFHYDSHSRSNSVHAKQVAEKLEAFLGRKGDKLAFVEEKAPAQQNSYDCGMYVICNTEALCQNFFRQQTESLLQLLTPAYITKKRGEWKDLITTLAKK
In kind it is functional.

The target of data set [8] is T2, Sentrin-specific protease 6 (Homo sapiens, UniProt Q9GZR1).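 Note: Luminescence-based dose-response confirmatory assay of SENP6 inhibition, following up an ultra-high-throughput screen.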
T2 sequence (Q9GZR1 whole entry): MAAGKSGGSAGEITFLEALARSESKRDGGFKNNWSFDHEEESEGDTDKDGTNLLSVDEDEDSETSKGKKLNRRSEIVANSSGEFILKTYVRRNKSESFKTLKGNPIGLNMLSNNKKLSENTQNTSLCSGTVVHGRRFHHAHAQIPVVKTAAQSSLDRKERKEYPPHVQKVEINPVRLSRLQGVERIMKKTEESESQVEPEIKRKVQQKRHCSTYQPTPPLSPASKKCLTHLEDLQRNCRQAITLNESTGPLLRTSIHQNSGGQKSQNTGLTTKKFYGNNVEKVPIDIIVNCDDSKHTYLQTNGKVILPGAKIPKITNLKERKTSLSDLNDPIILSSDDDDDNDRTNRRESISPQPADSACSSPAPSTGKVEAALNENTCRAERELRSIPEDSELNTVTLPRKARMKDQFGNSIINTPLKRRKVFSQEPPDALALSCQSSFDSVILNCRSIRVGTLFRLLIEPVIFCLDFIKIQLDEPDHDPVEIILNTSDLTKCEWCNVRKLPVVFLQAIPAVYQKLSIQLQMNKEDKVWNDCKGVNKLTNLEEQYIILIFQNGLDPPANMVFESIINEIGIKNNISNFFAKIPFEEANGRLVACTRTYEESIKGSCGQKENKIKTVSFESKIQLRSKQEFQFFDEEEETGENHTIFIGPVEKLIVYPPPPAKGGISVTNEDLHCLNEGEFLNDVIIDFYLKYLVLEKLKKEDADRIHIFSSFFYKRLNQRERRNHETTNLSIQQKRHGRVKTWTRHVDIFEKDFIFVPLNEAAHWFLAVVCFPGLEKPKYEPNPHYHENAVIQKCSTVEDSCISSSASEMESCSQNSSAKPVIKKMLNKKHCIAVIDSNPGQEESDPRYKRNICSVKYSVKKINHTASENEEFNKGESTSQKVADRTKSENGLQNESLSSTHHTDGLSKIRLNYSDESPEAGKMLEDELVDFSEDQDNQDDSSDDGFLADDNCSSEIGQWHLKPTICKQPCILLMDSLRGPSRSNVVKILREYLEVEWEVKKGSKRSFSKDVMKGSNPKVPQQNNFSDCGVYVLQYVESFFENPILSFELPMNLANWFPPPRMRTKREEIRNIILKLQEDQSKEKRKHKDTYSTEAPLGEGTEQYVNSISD
In kind it is functional.

In data set [9] the target is T3, Sentrin-specific protease 7 (Homo sapiens, UniProt Q9BQF6).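 Note: Luminescence-based dose-response confirmation of ultra-high-throughput screening hits, measuring inhibition of SENP7.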
T3 sequence (Q9BQF6 whole entry): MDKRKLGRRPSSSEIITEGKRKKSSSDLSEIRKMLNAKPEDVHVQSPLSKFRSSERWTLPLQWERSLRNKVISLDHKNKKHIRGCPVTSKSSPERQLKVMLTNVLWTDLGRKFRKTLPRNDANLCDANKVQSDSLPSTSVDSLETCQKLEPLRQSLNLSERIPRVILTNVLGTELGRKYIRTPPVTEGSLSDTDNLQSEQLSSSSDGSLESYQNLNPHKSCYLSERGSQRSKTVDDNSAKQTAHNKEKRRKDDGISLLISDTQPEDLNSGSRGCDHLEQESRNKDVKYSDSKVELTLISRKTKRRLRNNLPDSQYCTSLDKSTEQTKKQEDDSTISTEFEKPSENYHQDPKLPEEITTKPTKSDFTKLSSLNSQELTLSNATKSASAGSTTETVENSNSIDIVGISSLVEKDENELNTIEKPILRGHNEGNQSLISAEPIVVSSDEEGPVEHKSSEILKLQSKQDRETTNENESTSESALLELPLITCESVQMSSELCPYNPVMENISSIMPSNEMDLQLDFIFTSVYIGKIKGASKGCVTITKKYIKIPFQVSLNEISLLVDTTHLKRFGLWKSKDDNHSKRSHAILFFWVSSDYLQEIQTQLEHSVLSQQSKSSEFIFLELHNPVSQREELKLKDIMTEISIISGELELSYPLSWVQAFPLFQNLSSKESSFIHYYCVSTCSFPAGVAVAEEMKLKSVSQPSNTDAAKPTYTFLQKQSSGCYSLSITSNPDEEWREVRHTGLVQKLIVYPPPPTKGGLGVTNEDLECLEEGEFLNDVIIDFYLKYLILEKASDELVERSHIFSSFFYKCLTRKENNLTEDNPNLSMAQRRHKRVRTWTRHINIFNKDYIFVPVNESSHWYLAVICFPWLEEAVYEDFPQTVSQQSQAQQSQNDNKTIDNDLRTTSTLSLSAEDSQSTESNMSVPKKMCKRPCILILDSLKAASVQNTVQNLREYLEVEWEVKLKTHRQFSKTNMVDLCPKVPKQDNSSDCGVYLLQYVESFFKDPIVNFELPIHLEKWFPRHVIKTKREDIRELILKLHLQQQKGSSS
In kind it is functional.

In a further data set the target is T4, Caspase-3 (Homo sapiens, UniProt P42574).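 Note: Dose-response selectivity test against caspase-3 for candidate inhibitors of sentrin-specific proteases (SENPs).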
T4 sequence (P42574 whole entry): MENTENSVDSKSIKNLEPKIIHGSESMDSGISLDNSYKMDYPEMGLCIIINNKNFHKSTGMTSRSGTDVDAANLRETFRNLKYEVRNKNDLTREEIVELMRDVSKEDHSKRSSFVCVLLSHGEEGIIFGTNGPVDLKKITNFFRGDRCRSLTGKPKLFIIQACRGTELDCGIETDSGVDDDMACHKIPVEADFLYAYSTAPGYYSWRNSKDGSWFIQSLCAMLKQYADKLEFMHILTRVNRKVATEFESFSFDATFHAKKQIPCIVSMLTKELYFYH
In kind it is functional.

The next data set concerns the target T5, Cytochrome P450 1A2 (Homo sapiens, UniProt P05177).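 Note: PubChem cytochrome P450 panel assay, CYP1A2 panel member.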
T5 sequence (P05177 whole entry): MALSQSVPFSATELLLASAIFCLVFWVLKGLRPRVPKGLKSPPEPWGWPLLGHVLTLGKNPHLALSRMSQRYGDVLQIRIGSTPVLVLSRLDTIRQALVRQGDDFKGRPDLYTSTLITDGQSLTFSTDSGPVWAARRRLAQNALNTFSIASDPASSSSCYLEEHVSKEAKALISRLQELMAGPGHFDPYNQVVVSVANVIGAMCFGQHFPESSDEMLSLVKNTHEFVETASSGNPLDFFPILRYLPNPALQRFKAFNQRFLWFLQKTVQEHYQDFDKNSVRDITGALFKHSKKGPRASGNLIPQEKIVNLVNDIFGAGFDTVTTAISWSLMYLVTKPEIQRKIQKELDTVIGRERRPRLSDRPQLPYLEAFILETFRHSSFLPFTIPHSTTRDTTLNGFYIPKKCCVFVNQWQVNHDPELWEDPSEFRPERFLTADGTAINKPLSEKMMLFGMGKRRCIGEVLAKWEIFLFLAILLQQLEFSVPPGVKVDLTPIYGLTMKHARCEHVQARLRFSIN

In the next data set the target is Cytochrome P450 2C19 (Homo sapiens, UniProt P33261). In words: Cytochrome panel assay with activity outcomes. Panel member name: p450-cyp2c19 Compounds with AC50 equal or less than 10 uM are considered active. In kind it is functional. To be noted: read-out: AC50.
Data set [10] deals with T6, Heat shock factor protein 1 (Mus musculus, UniProt P38532).
T6 sequence (P38532 whole entry): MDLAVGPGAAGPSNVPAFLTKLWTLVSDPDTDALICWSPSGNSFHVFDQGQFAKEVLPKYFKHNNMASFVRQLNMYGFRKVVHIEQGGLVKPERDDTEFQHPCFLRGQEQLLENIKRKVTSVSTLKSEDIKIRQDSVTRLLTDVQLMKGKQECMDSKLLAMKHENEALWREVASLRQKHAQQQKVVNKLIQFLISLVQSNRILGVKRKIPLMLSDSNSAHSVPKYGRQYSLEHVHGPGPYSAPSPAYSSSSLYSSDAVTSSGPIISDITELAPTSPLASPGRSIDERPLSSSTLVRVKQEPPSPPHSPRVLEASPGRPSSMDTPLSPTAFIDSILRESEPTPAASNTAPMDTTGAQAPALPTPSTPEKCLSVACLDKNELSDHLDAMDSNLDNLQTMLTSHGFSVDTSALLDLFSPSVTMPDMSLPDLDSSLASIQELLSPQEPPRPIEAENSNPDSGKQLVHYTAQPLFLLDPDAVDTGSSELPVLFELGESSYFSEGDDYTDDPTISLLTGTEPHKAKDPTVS
The data set is described as follows: inhibition of MG132-induced HSE-luciferase signal, confirmation, cell-based, NIH3T3, luminescence, dose retest (AID 2382).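 Note: NIH3T3 fibroblasts with HSF1-driven luciferase reporter stressed by proteasome inhibitor MG132; luminescence from HSF1-driven luciferase expression after 8 hours of MG132 stress.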 In kind it is functional.

The target in data set [11] is T6, Heat shock factor protein 1. The data set is described as follows: HSF1 potentiators in luciferase reporter cells, confirmation, cell-based, NIH3T3, luminescence, dose retest (AID 435004).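 Note: stress induced by proteasome inhibitor MG132 added 30 min after compound; luciferase reporter driven by HSF1 response element in NIH3T3 cells; actives raise luminescence as potentiators of the MG132 stress response.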 In kind it is functional.
Data set [12] can be described thus: THP-1 cell cytotoxicity, dose response, cytotoxicity control for non-replicating M. tuberculosis project (AID 489025). In kind it is functional.
A short description of the next data set: cells. In kind it is functional.
The nature of data set [13]: Vero E6 cell cytotoxicity, dose response, cytotoxicity control for non-replicating M. tuberculosis project, secondary assay (AID 492998). In kind it is functional, VeroE6. To be noted: Vero C1008.

Cytochrome P450 3A4, sequence (P08684 whole entry): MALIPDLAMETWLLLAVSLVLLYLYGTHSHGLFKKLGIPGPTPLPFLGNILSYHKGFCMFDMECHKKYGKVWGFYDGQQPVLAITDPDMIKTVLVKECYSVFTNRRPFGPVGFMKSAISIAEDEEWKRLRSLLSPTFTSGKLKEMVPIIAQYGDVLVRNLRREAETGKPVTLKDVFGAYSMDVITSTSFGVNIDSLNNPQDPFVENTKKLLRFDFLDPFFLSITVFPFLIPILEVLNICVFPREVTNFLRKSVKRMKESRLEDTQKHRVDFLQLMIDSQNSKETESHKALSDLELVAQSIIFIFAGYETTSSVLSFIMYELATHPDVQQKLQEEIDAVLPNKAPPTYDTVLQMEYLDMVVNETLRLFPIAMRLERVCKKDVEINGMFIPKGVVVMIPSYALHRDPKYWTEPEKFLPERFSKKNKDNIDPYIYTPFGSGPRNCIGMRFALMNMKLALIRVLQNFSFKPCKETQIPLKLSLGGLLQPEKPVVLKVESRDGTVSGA
Cytochrome P450 2C9, sequence (P11712 whole entry): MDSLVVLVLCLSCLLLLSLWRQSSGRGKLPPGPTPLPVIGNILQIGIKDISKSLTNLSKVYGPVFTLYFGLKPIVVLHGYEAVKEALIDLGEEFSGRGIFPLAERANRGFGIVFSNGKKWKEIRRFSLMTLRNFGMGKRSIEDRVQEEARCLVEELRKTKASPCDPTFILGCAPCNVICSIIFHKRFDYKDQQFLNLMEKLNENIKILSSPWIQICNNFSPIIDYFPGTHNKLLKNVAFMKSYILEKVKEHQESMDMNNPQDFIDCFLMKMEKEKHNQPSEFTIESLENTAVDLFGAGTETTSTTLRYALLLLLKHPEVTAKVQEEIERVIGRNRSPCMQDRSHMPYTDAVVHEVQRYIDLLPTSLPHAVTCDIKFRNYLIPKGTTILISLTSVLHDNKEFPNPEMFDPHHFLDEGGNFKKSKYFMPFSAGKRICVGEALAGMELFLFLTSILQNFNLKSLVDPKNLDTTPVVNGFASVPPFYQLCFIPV
Cytochrome P450 2C19, sequence (P33261 whole entry): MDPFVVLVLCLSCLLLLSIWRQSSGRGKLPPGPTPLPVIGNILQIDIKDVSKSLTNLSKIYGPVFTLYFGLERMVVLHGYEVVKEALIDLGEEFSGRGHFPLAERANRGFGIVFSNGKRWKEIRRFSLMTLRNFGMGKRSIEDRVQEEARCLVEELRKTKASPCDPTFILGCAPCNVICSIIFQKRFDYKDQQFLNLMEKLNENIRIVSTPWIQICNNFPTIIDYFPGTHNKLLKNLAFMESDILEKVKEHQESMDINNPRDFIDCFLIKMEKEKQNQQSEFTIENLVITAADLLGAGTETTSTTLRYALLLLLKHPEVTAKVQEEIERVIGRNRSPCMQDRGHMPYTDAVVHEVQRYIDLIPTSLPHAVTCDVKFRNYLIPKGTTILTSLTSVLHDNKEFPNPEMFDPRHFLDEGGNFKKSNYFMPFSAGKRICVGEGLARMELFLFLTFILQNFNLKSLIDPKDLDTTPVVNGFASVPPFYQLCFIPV

In the case of `Cc1c(Cl)cccc1NC(=O)CN1CCC(C(O)(c2ccccc2)c2ccccc2)CC1`, the EC50 is > 30 µM (not active) in data set [1] and 2.33 µM (active) in data set [2]. Also, in [3], the CC50 was > 40 µM (active). Further, at Cytochrome P450 3A4, the AC50 entry is reported as “inconclusive”.
On to `Cc1nc2ncnn2c(C)c1CCC(=O)N1CCN(C(=O)c2ccco2)CC1`, for which the AC50 entry on Cytochrome P450 3A4 was “inconclusive”.
For the molecule `COc1ccc(Nc2nc(N3CCCCC3)c3ccccc3n2)cc1`, the AC50 in the data set on INS1 was 4.63 µM (active); at Cytochrome P450 2C9 it was 17.8 µM (inconclusive); at Cytochrome P450 3A4, “inconclusive”; in data set [4] it was 2.11 µM (active); in data set [5] it was 6.45 µM (active); in data set [6] it was 36.5 µM (active).
On to `O=C(Cn1cc(SCc2ccc(Cl)cc2)c2ccccc21)N1CCOCC1`, for which the IC50 in data set [7] was > 100 µM (inactive); in data set [8] it was 10.3 µM (active); in data set [9], 6.14 µM (active); on Caspase-3, 27.1 µM (active).
On to `O=C1c2ccccc2-c2nnc(-c3ccc(F)cc3)cc21`, for which the IC50 is 3.58 µM (active) in data set [7], 2.5 µM (active) in data set [8], 1.9 µM (active) in data set [9] and 2.59 µM (active) at Caspase-3.
As to `O=C(Nc1ccccc1)N1CCC2(CC1)CCN(C(=O)c1ccco1)CC2`, the AC50 at Cytochrome P450 1A2 was 10 µM (inconclusive); on Cytochrome P450 3A4 it was “inconclusive”; on Cytochrome P450 2C19 it was 39.8 µM (inconclusive).
Turning to `c1ccn(-c2ccc(N3CCOCC3)cc2)c1`, the AC50 entry on Cytochrome P450 3A4 was “inconclusive”. For the same molecule, the EC50 in [10] is > 195 µM (not active).
As to `O=C(COc1ccc(Cc2ccccc2)cc1)c1ccc(F)cc1`, the IC50 in data set [7] is > 100 µM (inactive); in data set [8], 69.3 µM (active); in data set [9] it was 15.6 µM (active); at Caspase-3, 39.9 µM (active).
As to `Cc1cccc(OCc2cc(-c3ccccc3)no2)c1C`, the IC50 in data set [7] was 42.8 µM (active); in [8], 20.1 µM (active); in data set [9], 5.47 µM (active); on Caspase-3 it was 26.6 µM (active).
Turning to `O=C(NC1CCCCC1)c1cnn2c(C(F)(F)F)cc(-c3ccco3)nc12`, the EC50 in data set [11] was > 260 µM (inactive).
Consider `COCOc1cc(O)c(C(=O)/C=C/c2ccccc2)c(OCOC)c1`, for which the EC50 in [11] is 22.1 µM (active).
As to `O=C(Oc1ccccc1)N1CCC2(CC1)CCN(c1ccccn1)CC2`, the AC50 was 31.6 µM (inconclusive) on Cytochrome P450 2C9, “inconclusive” on Cytochrome P450 3A4 and 20 µM (inconclusive) on Cytochrome P450 2C19.
Take `Cc1cc(Br)ccc1OCC(=O)NNC(=O)c1cnccn1`: the CC50 in data set [12] was > 40 µM (active); in data set [13], 17.8 µM (active). For the same molecule, the IC50 in “cells” is 8.2 µM (active).
